{
  "source": "patent US4820703A",
  "about": "“PAF-antagonistic thienotriazolodiazepine compounds and pharmaceutical uses thereof” (Yoshitomi Pharmaceutical Industries Ltd., priority 1986, dated 1989)",
  "key": {"benzodiazepine receptor": {"system": "benzodiazepine receptor", "conditions": "well-known; cited from earlier work"}, "[1]": {"system": "PAF-induced platelet aggregation", "assay": "Inhibitory effect on PAF-induced platelet aggregation in rabbits (in vitro test)", "type": "cell-based", "conditions": "Oryctolagus cuniculus, rabbit PRP, PAF 1.8×10^-7 M, 37° C., read-out: Inhibition of PAF-induced platelet aggregation, IC50", "protocol": "Blood samples to which was added 0.1 volume of 3.8% sodium citrate were collected from rabbits. Platelet rich plasma (PRP) was prepared by centrifuging the blood sample at 200×g for 10 minutes, and platelet poor plasma (PPP) was prepared by centrifuging the remaining blood sample at 1000×g for 10 minutes.\n(§1) Aggregation ability was measured with a turbidimetric device (6-channel NKK Hematracer 1, model PAT-6A) according to the method of G.V.R. Born described in J. Physiology, vol. 168, p. 178 (1963). The aggregometer was adjusted in sensitivity to give light transmission vaues of 0 and 100% for PRP and PPP, respectively. With stirring at 1000 rpm, 0.3 μl of test compound solution or vehicle was added to 0.3 ml of PRP. After the mixture was kept at 37° C. for 2 minutes, to the mixture was added 3 μl PAF (Serdary Research Lab.) at the final concentration of 1.8×10^-7 M and the light transmission was recorded for 5 minutes.\nIn all experiments, PAF was dissolved in ethanol at the concentration of 100 μg/ml, and, when used, diluted with 0.9% saline solution.\n(§2) The inhibition percentage of test compounds on platelet aggregation were calculated from the following formula by measuring the maximal light transmission in the presence and absence of the test compounds. [formula]"}, "[2]": {"system": "platelet-activating factor (PAF)", "conditions": "literature (Japan. J. Pharmacol. 1987; EP-A 194416); cited from earlier work"}, "PAF-induced foot edema": {"system": "PAF-induced foot edema", "assay": "Effect on PAF edema (PAF-induced foot edema in rats)", "type": "in vivo, rats (male Donryu)", "conditions": "1 hour after PAF 5 μg s.c.", "protocol": "The experiment was carried out according to the method of Swingle et al. described in Agents and Actions, vol. 18, p. 359 (1986). Groups of five male Donryu rats weighing about 150 g were used. One hour after the oral administration of test compound (25 ml/kg), 5 μg/0.05 ml of PAF solution was subcutaneously injected to the paw of the right hind leg. The foot volume of the hind leg was measured 1 hour after the injection. The increasing ratios of foot volume before and after PAF injection were calculated."}, "platelet aggregation": {"system": "platelet aggregation", "assay": "Inhibitory effect on platelet aggregation in rabbits (ex vivo test)", "parameters": "species or system rabbit", "conditions": "3 animals", "protocol": "as §1, §2\nTest compound was orally administered to rabbit instead of adding it to PRP as in vitro test of Experiment 1, and then the citrated blood samples (9 volumes of blood+1 volume of 3.8% sodium citrate) were collected with the passage of time. Then, the blood samples were employed to determine the inhibitory effect at 1, 3, 6 and 24 hours after the administration of test compounds, respectively, according to Experiment 1."}, "central system": {"system": "central system", "conditions": "U.S. Pat. No. 3,904,641; cited from earlier work"}, "PAF-induced lethal shock": {"system": "PAF-induced lethal shock", "assay": "Effect on PAF-induced lethal shock in mice", "type": "in vivo, mice (male ICR)", "conditions": "80 μg/kg PAF i.v., 24 hours", "protocol": "The experiment was carried out according to the method of Young et al. described in Prostaglandins, vol. 30, p. […] Groups of 9 to 15 male ICR mice (Charles River) weighing 25-30 g were used. 80 μg/kg of PAF (Serdary Research Lab.) solution was intravenously administered in a lateral tail vein 1 hour after the oral administration of test compound (0.1 ml/10 g). […] Results were given as number of survivors/number of employed animals and survival rates (%) in Table 3."}, "[3]": {"conditions": "3 mg/kg p.o., 1 hour after administration"}, "[4]": {"conditions": "3 mg/kg p.o., 3 hours after administration"}, "[5]": {"conditions": "3 mg/kg p.o., 6 hours after administration"}, "[6]": {"conditions": "3 mg/kg p.o., 24 hours after administration"}},
  "data": [
    {"compound": "CCc1cc2c(s1)-n1c(C)nnc1CN=C2c1ccccc1Cl", "note": "[Etizolam, 6-(o-chlorophenyl)-8-ethyl-1-methyl-4H-s-triazolo[3,4-c]thieno[2,3-e][1,4]diazepine, reference compound]", "values": [
      {"measurement": "affinity for the benzodiazepine receptor", "setting": "benzodiazepine receptor", "result": "high affinity"},
      {"measurement": "IC50", "setting": "[1]", "result": 1.3, "unit": "µg/mL"},
      {"measurement": "antagonistic activity on PAF", "setting": "[2]", "result": "exhibits antagonistic activity"},
      {"measurement": "Inhibition (foot edema)", "setting": "PAF-induced foot edema; 10 mg/kg oral", "result": 38, "unit": "%"},
      {"measurement": "Inhibition (foot edema)", "setting": "PAF-induced foot edema; 25 mg/kg oral", "result": 54, "unit": "%"},
      {"measurement": "% of inhibition", "setting": "platelet aggregation; 10 mg/kg p.o., printed once for the 1, 3, 6, 24 hours columns", "result": "no effect"},
      {"measurement": "pharmacological activities against the central nervous system", "setting": "central system", "result": "antianxiety or anticonvulsant activities"}
    ]},
    {"compound": "Cc1nnc2n1-c1sc(CCCCc3ccc(CC(C)C)cc3)cc1C(c1ccccc1Cl)=NC2", "note": "[Compound C, 4-(2-chlorophenyl)-2-[4-(4-isobutylphenyl)butyl]-9-methyl-6H-thieno[3,2-f][1,2,4]triazolo[4,3-a][1,4]diazepine]", "values": [
      {"measurement": "Survival rate", "setting": "PAF-induced lethal shock; 3.0 mg/kg p.o.", "result": 100.0, "unit": "%"},
      {"measurement": "number of survivors/number of employed animals", "setting": "PAF-induced lethal shock; 3.0 mg/kg p.o.", "result": "9/9"},
      {"measurement": "IC50", "setting": "[1]", "result": "0.03 to 0.1", "unit": "µg/mL"}
    ]},
    {"compound": "COc1ccc(CCc2cc3c(s2)-n2c(C)nnc2CN=C3c2ccccc2Cl)cc1", "note": "[Compound D, 4-(2-chlorophenyl)-2-[2-(4-methoxyphenyl)ethyl]-9-methyl-6H-thieno[3,2-f][1,2,4]triazolo[4,3-a][1,4]diazepine]", "values": [
      {"measurement": "IC50", "setting": "[1]", "result": "0.01 to 0.03", "unit": "µg/mL"}
    ]},
    {"compound": "Cc1nnc2n1-c1sc(CCCc3ccc(CC(C)C)cc3)cc1C(c1ccccc1Cl)=NC2", "note": "[Compound I, 4-(2-chlorophenyl)-2-[3-(4-isobutylphenyl)propyl]9-methyl-6H-thieno[3,2-f][1,2,4]triazolo[4,3-a][1,4]diazepine]", "values": [
      {"measurement": "IC50", "setting": "[1]", "result": 0.01, "unit": "µg/mL"}
    ]},
    {"compound": "Cc1nnc2n1-c1sc(CCc3ccccc3)cc1C(c1ccccc1Cl)=NC2", "note": "[Compound G, 4-(2-chlorophenyl)-2-(2-phenylethyl)-9-methyl-6H-thieno[3,2-f][1,2,4]triazolo[4,3-a][1,4]diazepine]", "values": [
      {"measurement": "IC50", "setting": "[1]", "result": "0.03 to 0.1", "unit": "µg/mL"}
    ]},
    {"compound": "CCCCc1ccc(CCc2cc3c(s2)-n2c(C)nnc2CN=C3c2ccccc2Cl)cc1", "note": "[Compound E, 4-(2-chlorophenyl)-2-[2-(4-n-butylphenyl)ethyl]-9-methyl-6H-thieno[3,2-f][1,2,4]triazolo[4,3-a][1,4]diazepine]", "values": [
      {"measurement": "Survival rate", "setting": "PAF-induced lethal shock; 1.0 mg/kg p.o.", "result": 70.0, "unit": "%"},
      {"measurement": "number of survivors/number of employed animals", "setting": "PAF-induced lethal shock; 1.0 mg/kg p.o.", "result": "7/10"},
      {"measurement": "Survival rate", "setting": "PAF-induced lethal shock; 3.0 mg/kg p.o.", "result": 100.0, "unit": "%"},
      {"measurement": "number of survivors/number of employed animals", "setting": "PAF-induced lethal shock; 3.0 mg/kg p.o.", "result": "10/10"},
      {"measurement": "IC50", "setting": "[1]", "result": 0.01, "unit": "µg/mL"},
      {"measurement": "Inhibition (foot edema)", "setting": "PAF-induced foot edema; 0.1 mg/kg oral", "result": 55, "unit": "%"},
      {"measurement": "Inhibition (foot edema)", "setting": "PAF-induced foot edema; 1 mg/kg oral", "result": 78, "unit": "%"},
      {"measurement": "Inhibition (foot edema)", "setting": "PAF-induced foot edema; 3 mg/kg oral", "result": 75, "unit": "%"},
      {"measurement": "% of inhibition", "setting": "platelet aggregation; [3]", "result": "100±0", "unit": "%"},
      {"measurement": "% of inhibition", "setting": "platelet aggregation; [4]", "result": "100±0", "unit": "%"},
      {"measurement": "% of inhibition", "setting": "platelet aggregation; [5]", "result": "100±0", "unit": "%"},
      {"measurement": "% of inhibition", "setting": "platelet aggregation; [6]", "result": "94±6", "unit": "%"}
    ]},
    {"compound": "Cc1nnc2n1-c1sc(CCc3ccc(CC(C)C)cc3)cc1C(c1ccccc1Cl)=NC2", "note": "[Compound A, 4-(2-chlorophenyl)-2-[2-(4-isobutylphenyl)ethyl]-9-methyl-6H-thieno[3,2-f][1,2,4]triazolo[4,3-a][1,4]diazepine]", "values": [
      {"measurement": "Survival rate", "setting": "PAF-induced lethal shock; 3.0 mg/kg p.o.", "result": 100.0, "unit": "%"},
      {"measurement": "number of survivors/number of employed animals", "setting": "PAF-induced lethal shock; 3.0 mg/kg p.o.", "result": "9/9"},
      {"measurement": "IC50", "setting": "[1]", "result": "0.003 to 0.01", "unit": "µg/mL"},
      {"measurement": "Inhibition (foot edema)", "setting": "PAF-induced foot edema; 0.3 mg/kg oral", "result": 31, "unit": "%"},
      {"measurement": "Inhibition (foot edema)", "setting": "PAF-induced foot edema; 1 mg/kg oral", "result": 51, "unit": "%"},
      {"measurement": "Inhibition (foot edema)", "setting": "PAF-induced foot edema; 3 mg/kg oral", "result": 59, "unit": "%"},
      {"measurement": "% of inhibition", "setting": "platelet aggregation; [3]", "result": "97±3", "unit": "%"},
      {"measurement": "% of inhibition", "setting": "platelet aggregation; [4]", "result": "100±0", "unit": "%"},
      {"measurement": "% of inhibition", "setting": "platelet aggregation; [5]", "result": "100±0", "unit": "%"},
      {"measurement": "% of inhibition", "setting": "platelet aggregation; [6]", "result": "100±0", "unit": "%"}
    ]},
    {"compound": "Cc1nnc2n1-c1sc(CCc3ccc(CC(C)C)cc3)cc1C(c1ccccc1Cl)=NC2C", "note": "(centres unmarked) [Compound K, 4-(2-chlorophenyl)-2-[2-(4-isobutylphenyl)ethyl]-6,9-dimethyl-6H-thieno[3,2-f][1,2,4]triazolo[4,3-a][1,4]diazepine]", "values": [
      {"measurement": "IC50", "setting": "[1]", "result": "0.01 to 0.03", "unit": "µg/mL"}
    ]},
    {"compound": "Cc1ccc(CCc2cc3c(s2)-n2c(C)nnc2CN=C3c2ccccc2Cl)cc1", "note": "[Compound B, 4-(2-chlorophenyl)-2-[2-(4-methylphenyl)ethyl]-9-methyl-6H-thieno[3,2-f][1,2,4]triazolo[4,3-a][1,4]diazepine]", "values": [
      {"measurement": "IC50", "setting": "[1]", "result": "0.01 to 0.03", "unit": "µg/mL"}
    ]},
    {"compound": "CCc1nnc2n1-c1sc(CCc3ccc(CC(C)C)cc3)cc1C(c1ccccc1Cl)=NC2", "note": "[Compound J, 4-(2-chlorophenyl)-9-ethyl-2-[2-(4-isobutylphenyl)ethyl]-6H-thieno[3,2-f][1,2,4]triazolo[4,3-a][1,4]diazepine]", "values": [
      {"measurement": "IC50", "setting": "[1]", "result": "0.01 to 0.03", "unit": "µg/mL"}
    ]},
    {"compound": "CCCCc1ccc(CCc2cc3c(s2)-n2c(C)nnc2C(C)N=C3c2ccccc2Cl)cc1", "note": "(centres unmarked) [Compound L, 4-(2-chlorophenyl)-2-[2-(4-n-butylphenyl)ethyl]6,9-dimethyl-6H-thieno[3,2-f][1,2,4]triazolo[4,3-a][1,4]diazepine]", "values": [
      {"measurement": "IC50", "setting": "[1]", "result": "0.01 to 0.03", "unit": "µg/mL"}
    ]},
    {"compound": "Cc1nnc2n1-c1sc(Cc3ccc(CC(C)C)cc3)cc1C(c1ccccc1Cl)=NC2", "note": "[Compound H, 4-(2-chlorophenyl)-2-(4-isobutylbenzyl)-9-methyl-6H-thieno[3,2-f][1,2,4]triazolo[4,3-a][1,4]diazepine]", "values": [
      {"measurement": "IC50", "setting": "[1]", "result": "0.003 to 0.01", "unit": "µg/mL"}
    ]},
    {"compound": "Cc1nnc2n1-c1sc(CCc3ccc(-c4ccccc4)cc3)cc1C(c1ccccc1Cl)=NC2", "note": "[Compound F, 4-(2-chlorophenyl)-2-[2-(4-phenylphenyl)ethyl]-9-methyl-6H-thieno[3,2-f][1,2,4]triazolo[4,3-a][1,4]diazepine]", "values": [
      {"measurement": "IC50", "setting": "[1]", "result": "0.01 to 0.03", "unit": "µg/mL"}
    ]}
  ]
}
